# Tested on: HEK293FT cells transfected with TF library
# Experiment: Screening of TF condensates based on fluorescent puncta
# Assay type: cell-based
# Details: Figure 1B numerical data; TF library screen, one value per transcriptional factor
# Experimental: TF plasmids were automatically added to black-walled 384-well plates at 80 ng per well to reach a final concentration of 1.6 μg/ml. Polyethylenimine (PEI, Sigma) was then added to the plasmid-loaded plates at 240 ng per well (4.8 μg/ml). Subsequently, HEK293FT cells were seeded into the plate at 2000 cells per well. After 60 h, cells were cultured in medium with or without glucose for 12 h, and then fixed with 4% paraformaldehyde (PFA) at room temperature for 30 min. After three washes with PBS, fixed cells were permeabilized with 0.05% Triton X-100 for 15 min. Thereafter, cells were blocked with 5% BSA for 1 h, and then incubated overnight with anti-Flag (Sigma F3165, 1:200) and anti-GAL4 (Abbkine ABP57232, 1:200) primary antibodies at 4 °C. The cells were then gently washed with PBS, followed by being incubated with Alexa Fluor Plus 488 goat anti-mouse IgG secondary antibody (Thermo A32723, 1:400) or Alexa Fluor Plus 488 goat anti-rabbit IgG secondary antibody (Thermo A32731, 1:400) for 1 h. The plates were kept at 4 °C in the dark before being analyzed using an Opera System (Perkin Elmer). Fifty random fields per well were scanned and analyzed using the Columbus Plus Image Data Storage and Analysis System (Perkin Elmer).
substance,measurement,value
ANKRD1,Z score of condensed fraction,1.047
AP-2A,Z score of condensed fraction,0.4428
ARNT2,Z score of condensed fraction,-0.9281
ARX,Z score of condensed fraction,-0.4034
ATF4/CREB2,Z score of condensed fraction,2.625
BACH2,Z score of condensed fraction,2.257
BHLHE22,Z score of condensed fraction,1.286
BIRC3,Z score of condensed fraction,-0.652
BMAL1,Z score of condensed fraction,-0.6251
BTEB1,Z score of condensed fraction,-0.01224
CFOS,Z score of condensed fraction,0.6801
CHD6,Z score of condensed fraction,-1.082
COPEB,Z score of condensed fraction,-0.3064
COPS5,Z score of condensed fraction,-0.1538
CREB1,Z score of condensed fraction,-0.9562
CSDA,Z score of condensed fraction,-0.8745
CTBP2,Z score of condensed fraction,1.5
DLX3,Z score of condensed fraction,-0.9246
DLX5,Z score of condensed fraction,-0.5192
DLX6,Z score of condensed fraction,-0.9336
DMBX1,Z score of condensed fraction,-0.1986
DMRTB1,Z score of condensed fraction,1.668
DOUBLESEX,Z score of condensed fraction,-0.4806
DYRK1B,Z score of condensed fraction,-0.5775
EED,Z score of condensed fraction,-1.11
EGR2,Z score of condensed fraction,-0.8859
EGR3,Z score of condensed fraction,0.2174
EHF,Z score of condensed fraction,-0.3879
ELF1,Z score of condensed fraction,3.027
ELK3,Z score of condensed fraction,0.04681
ELK4,Z score of condensed fraction,0.361
EPAS1,Z score of condensed fraction,-0.6882
ETS2,Z score of condensed fraction,-0.1278
ETV6,Z score of condensed fraction,-0.2068
FEV,Z score of condensed fraction,-0.8157
FIGLA,Z score of condensed fraction,0.3984
GATA3,Z score of condensed fraction,-0.2833
GBX1,Z score of condensed fraction,1.521
GFI1,Z score of condensed fraction,-0.2635
GFI1B,Z score of condensed fraction,-0.772
GLI2,Z score of condensed fraction,-0.605
GSC2,Z score of condensed fraction,-0.9708
HDGF,Z score of condensed fraction,2.149
HIVEP2,Z score of condensed fraction,-0.8032
HMGN3,Z score of condensed fraction,1.967
HOX11L2/RNX,Z score of condensed fraction,0.134
HOXA1,Z score of condensed fraction,-0.1685
HOXA3,Z score of condensed fraction,-0.6169
HOXA5,Z score of condensed fraction,-1.091
HOXA6,Z score of condensed fraction,1.681
HOXA9,Z score of condensed fraction,-1.01
HOXA10,Z score of condensed fraction,-0.1146
HOXA11,Z score of condensed fraction,-0.6499
HOXB4,Z score of condensed fraction,-1.061
HOXB5,Z score of condensed fraction,-0.4916
HOXB7,Z score of condensed fraction,0.6165
HOXB8,Z score of condensed fraction,-0.6846
HOXB13,Z score of condensed fraction,-0.5432
HOXC4,Z score of condensed fraction,0.8193
HOXC5,Z score of condensed fraction,-0.4333
HOXC9,Z score of condensed fraction,-0.7207
HOXC10,Z score of condensed fraction,-0.2628
HOXC11,Z score of condensed fraction,-0.01391
HOXD1,Z score of condensed fraction,-0.8333
HOXD4,Z score of condensed fraction,-0.2008
HOXD10,Z score of condensed fraction,-0.4162
HOXD11,Z score of condensed fraction,-0.6245
HOXD12,Z score of condensed fraction,0.1237
KDM5C,Z score of condensed fraction,0.549
KDM5D,Z score of condensed fraction,0.3583
KLF7,Z score of condensed fraction,1.062
KLF9,Z score of condensed fraction,-0.8423
KLF13,Z score of condensed fraction,-0.9454
KLF15,Z score of condensed fraction,0.8588
KLF16,Z score of condensed fraction,-0.8935
LHX6,Z score of condensed fraction,-0.2026
LHX8,Z score of condensed fraction,-0.6943
LYL1,Z score of condensed fraction,-0.8803
MAD2,Z score of condensed fraction,-0.8457
MAFG,Z score of condensed fraction,0.65
MAX,Z score of condensed fraction,1.089
MECOM,Z score of condensed fraction,-0.8438
MEOX1,Z score of condensed fraction,-0.5142
MIXL1,Z score of condensed fraction,-0.6564
MSX1,Z score of condensed fraction,-0.7505
MTF1,Z score of condensed fraction,0.05882
MYT1L,Z score of condensed fraction,-0.407
NEUROD6,Z score of condensed fraction,1.486
NFIA,Z score of condensed fraction,0.5032
NFIB,Z score of condensed fraction,0.509
NFIC,Z score of condensed fraction,-0.8557
NH1H1,Z score of condensed fraction,-0.5104
NKX3-1,Z score of condensed fraction,-0.7603
NKX3-2,Z score of condensed fraction,1.062
NPM1,Z score of condensed fraction,0.01602
NR2E1/TLX,Z score of condensed fraction,-0.5566
NR5A1,Z score of condensed fraction,-0.8082
NRBF2,Z score of condensed fraction,-0.07151
OTX1,Z score of condensed fraction,-0.7284
PAX2,Z score of condensed fraction,-1.114
PAX6,Z score of condensed fraction,-0.2168
PAX9,Z score of condensed fraction,-0.6994
PBRM1,Z score of condensed fraction,-1.101
PCBD2,Z score of condensed fraction,-0.6918
PDX1,Z score of condensed fraction,-0.1162
PHF19,Z score of condensed fraction,-0.6582
PHOX2A,Z score of condensed fraction,0.2668
PHOX2B,Z score of condensed fraction,-1.179
PITX1,Z score of condensed fraction,0.6327
PITX3,Z score of condensed fraction,1.221
PNRC2,Z score of condensed fraction,0.4868
PRDM1,Z score of condensed fraction,-0.6129
PRDM2,Z score of condensed fraction,-1.186
PRDM4,Z score of condensed fraction,-0.7551
PRDM13,Z score of condensed fraction,-0.08172
PRRX1,Z score of condensed fraction,-0.08333
PSMC3,Z score of condensed fraction,1.134
RAX2,Z score of condensed fraction,0.03236
RERE,Z score of condensed fraction,-0.9918
RHOA,Z score of condensed fraction,2.893
RREB1,Z score of condensed fraction,-1.018
SOX5,Z score of condensed fraction,-1.09
SOX11,Z score of condensed fraction,1.034
SOX14,Z score of condensed fraction,0.5877
SOX15,Z score of condensed fraction,0.259
SOX17,Z score of condensed fraction,0.6231
SOX21,Z score of condensed fraction,-0.645
SP1,Z score of condensed fraction,-0.5886
SP4,Z score of condensed fraction,0.4803
SP7,Z score of condensed fraction,-0.6845
SP8,Z score of condensed fraction,-1.149
SPIB,Z score of condensed fraction,-0.6455
SSX1,Z score of condensed fraction,0.2068
ST18,Z score of condensed fraction,-0.7086
SUMO1,Z score of condensed fraction,-0.2512
SUPT3H,Z score of condensed fraction,2.5076
TADA1L,Z score of condensed fraction,-0.6293
TAF11,Z score of condensed fraction,-0.1333
TAL1,Z score of condensed fraction,1.608
TAL2,Z score of condensed fraction,1.36
TFAP2C,Z score of condensed fraction,1.42
TFAP2D,Z score of condensed fraction,-0.6052
TFAP2E,Z score of condensed fraction,1.779
TGIF2,Z score of condensed fraction,0.8605
TIGD4,Z score of condensed fraction,-0.7471
TLX2,Z score of condensed fraction,-0.3265
TULP4,Z score of condensed fraction,-0.4703
VSX1,Z score of condensed fraction,0.9653
VSX2,Z score of condensed fraction,2.883
WIZ,Z score of condensed fraction,-0.9233
XRCC6,Z score of condensed fraction,-0.8161
ZBTB8A,Z score of condensed fraction,0.3848
ZBTB14,Z score of condensed fraction,-0.8092
ZBTB16,Z score of condensed fraction,0.8279
ZDHHC17,Z score of condensed fraction,0.6824
ZFP1,Z score of condensed fraction,-1.01
ZFP37,Z score of condensed fraction,-0.4393
ZFP161,Z score of condensed fraction,-0.4432
ZFP238,Z score of condensed fraction,-0.7406
ZFP263,Z score of condensed fraction,2.5993
ZKSCAN8,Z score of condensed fraction,-0.06563
ZNF10,Z score of condensed fraction,-0.8346
ZNF22,Z score of condensed fraction,-0.4323
ZNF34,Z score of condensed fraction,-0.5261
ZNF37A,Z score of condensed fraction,-0.5462
ZNF57,Z score of condensed fraction,0.3
ZNF77,Z score of condensed fraction,-1.086
ZNF92,Z score of condensed fraction,0.2513
ZNF132,Z score of condensed fraction,-0.5777
ZNF133,Z score of condensed fraction,-0.4329
ZNF136,Z score of condensed fraction,-0.8979
ZNF175,Z score of condensed fraction,-0.614
ZNF177,Z score of condensed fraction,-0.2364
ZNF197,Z score of condensed fraction,-0.8156
ZNF212,Z score of condensed fraction,-0.4443
ZNF221,Z score of condensed fraction,-0.687
ZNF223,Z score of condensed fraction,0.1367
ZNF227,Z score of condensed fraction,-1.039
ZNF230,Z score of condensed fraction,0.8569
ZNF254,Z score of condensed fraction,0.4246
ZNF257,Z score of condensed fraction,0.03056
ZNF267,Z score of condensed fraction,2.62
ZNF273,Z score of condensed fraction,-0.8812
ZNF302,Z score of condensed fraction,-1.141
ZNF320,Z score of condensed fraction,0.5251
ZNF329,Z score of condensed fraction,-0.4972
ZNF333,Z score of condensed fraction,-0.8758
ZNF345,Z score of condensed fraction,-1.14
ZNF404,Z score of condensed fraction,-1.0199
ZNF417,Z score of condensed fraction,1.093
ZNF432,Z score of condensed fraction,-0.5974
ZNF433,Z score of condensed fraction,-0.2089
ZNF454,Z score of condensed fraction,-0.2763
ZNF490,Z score of condensed fraction,-0.9623
ZNF496,Z score of condensed fraction,0.02283
ZNF500,Z score of condensed fraction,-0.7824

# Reference: paper PMC11574045, “A cofactor-induced repressive type of transcription factor condensation can be induced by synthetic peptides to suppress tumorigenesis” (The EMBO Journal, 2024)
